US4663320A, “(2-oxo-1,2,3,5-tetrahydroimidazo[2,1-b]quinoazolinyl)oxyalkylamides, compositions and the use thereof” (Syntex (U.S.A.) Inc., priority 1985, dated 1987)

Columns and labels:
[1] = tested on: Human platelet cyclic AMP phosphodiesterase; experiment: Cyclic AMP phosphodiesterase assay (human platelet); format: biochemical; conditions: for IC50: human platelet phosphodiesterase, 1 μM cyclic AMP as substrate; for Relative Potency: relative to theophylline (assigned a value of 1) on human platelet phosphodiesterase
Procedure: (§1) The inhibition of cyclic AMP phosphodiesterase activity by the subject compounds was assayed by the method of Filburn and Karn, Analyt. Biochem., 52:505-516 (1973), using 1 μM cyclic AMP as the substrate. Human platelet cyclic AMP phosphodiesterase was obtained from human donors. Platelets were isolated and washed by centrifugation, the membranes ruptured by a sequential freeze-thaw procedure and hypotonic lysis and the soluble enzyme isolated by high speed centrifugation. The enzyme was stored in aliquots at -20° C.
(§2) This table contains the IC50 values for human platelet phosphodiesterase and IC25 values for rat heart phosphodiesterase.

[2] = tested on: rat heart phosphodiesterase; experiment: Cyclic AMP phosphodiesterase inhibition (rat heart); format: biochemical
Procedure: as §1, §2

Mongrel dogs = experiment: Inotropic activity in anesthetized dogs; format: in vivo; conditions: dog
Procedure: Mongrel dogs were anesthetized intravenously with 35 mg/Kg sodium pentobarbital and supplemented as needed. Blood pressure was measured with a Statham pressure transducer via a cannula inserted from a femoral artery into the abdominal aorta. Heart rate was recorded by a cardiotachometer from a lead II electrocardiogram. Right ventricular contractile force was recorded from a Walton-Brodie strain gauge sutured to the right ventricle following a midsternal thoracotomy. A Harvard respirator was used to ventilate the dogs with room air through an endotracheal tube. The dog was bilaterally vagotomized. Following a midline laparotomy, a cannula was sutured into the duodenum for intraduodenal administration of test compound. A femoral vein was cannulated for administration of isoproterenol. All data were recorded on a Beckman R611 Dynograph.
To assess the responsiveness of each dog, isoproterenol was given intravenously at half-log interval doses from 0.007 to 2.1 or 6.67 μg/Kg. The test compound was then administered intraduodenally, usually at a low dose of 2 mg/Kg and subsequently at higher doses of 6.32 and/or 20 mg/Kg, if necessary. In a few instances, some compounds administered intraduodenally at dose levels from 0.316 to 3.16 mg/Kg.

Compound: CC(C)C(=O)OCCN(C(=O)CCCOc1ccc2c(c1)CN1CC(=O)NC1=N2)C1CCCCC1
- IC50 [1]: 1.1 nM
- Relative Potency [1]: 245,000

Compound: CC(C)(C)C(=O)OCCN(C(=O)CCCOc1ccc2c(c1)CN1CC(=O)NC1=N2)C1CCCCC1
- IC50 [1]: 1 nM
- Relative Potency [1]: 270,000

Compound: O=C1CN2Cc3cc(OCCCC(=O)N4CCCC5CCCCC54)ccc3N=C2N1 (racemic) [(±)-decahydroquinloninyl-4-(2-oxo-1,2,3,5-tetrahydroimidazo[2,1-b]quinazolin-7-yl)oxybutyramide]
- Rat Heart IC25 [2]: 200 nM
- IC50 [1]: 13.5 nM
- Relative Potency [1]: 20,000

Compound: O=C1CN2Cc3cc(OCCCC(=O)N4CCCCC4CC(C4CCCCC4)C4CCCCC4)ccc3N=C2N1 (racemic) [perhexylenyl (n = 3, position 7), perhexylenyl-4-(2-oxo-1,2,3,5-tetrahydroimidazo[2,1-b]quinazolin-7-yl)oxybutyramide]
- Rat Heart IC25 [2]: 36 nM
- IC50 [1]: 1.8 nM
- Relative Potency [1]: 146,000

Compound: O=C1CN2Cc3cc(OCCCC(=O)N(Cc4ccccc4)Cc4ccccc4)ccc3N=C2N1 [N,N--dibenzyl (n = 3, position 7), N,N-dibenzyl-4-(2-oxo-1,2,3,5-tetrahydroimidazo[2,1-b]quinazolin-7-yl)oxybutyramide]
- Rat Heart IC25 [2]: 60 nM
- IC50 [1]: 9.2 nM
- Relative Potency [1]: 29,300

Compound: CC(=O)OCCN(C(=O)CCCOc1ccc2c(c1)CN1CC(=O)NC1=N2)C1CCCCC1 [N-cyclohexyl-N-(acetoxyethyl)-4-(2-oxo-1,2,3,5-tetrahydroimidazo[2,1-b]quinazolin-7-yl)oxybutyramide]
- IC50 [1]: 1.4 nM
- Relative Potency [1]: 193,000

Compound: O=C1CN2Cc3cc(OCCCC(=O)N(CCOC(=O)c4ccccc4)C4CCCCC4)ccc3N=C2N1 [N-cyclohexyl-N-(benzoyloxyethyl)-4-(2-oxo-1,2,3,5-tetrahydroimidazo[2,1-b]quinazolin-7-yl)oxybutyramide]
- IC50 [1]: 0.94 nM
- Relative Potency [1]: 287,000

Compound: CN(C(=O)CCCOc1cccc2c1CN1CC(=O)NC1=N2)C1CCCCC1 [N-cyclohexyl-N-methyl-4-(2-oxo-1,2,3,5-tetrahydroimidazo[2,1-b]quinazolin-6-yl)oxybutyramide]
- IC50 [1]: 2000 nM
- Relative Potency [1]: 135

Compound: CN(C(=O)CCCOc1ccc2c(c1)N=C1NC(=O)CN1C2)C1CCCCC1 [N-cyclohexyl-N-methyl-4-(2-oxo-1,2,3,5-tetrahydroimidazo[2,1-b]quinazolin-8-yl)oxybutyramide]
- IC50 [1]: 150 nM
- Relative Potency [1]: 1,800

Compound: CN(C(=O)CCCOc1cccc2c1N=C1NC(=O)CN1C2)C1CCCCC1 [N-cyclohexyl-N-methyl-4-(2-oxo-1,2,3,5-tetrahydroimidazo[2,1-b]quinazolin-9-yl)oxybutyramide]
- IC50 [1]: > 10000 nM
- Relative Potency [1]: < 2.7

Compound: C[C@H]1C(=O)NC2=Nc3ccc(OCCCC(=O)N(C)C4CCCCC4)cc3CN21 [N-cyclohexyl-N-methyl-4-(2-oxo-3-L-methyl-1,2,3,5-tetrahydroimidazo[2,1-b]quinzolin-7-yl)oxybutyramide]
- Blood Pressure, peak effect as % of max. isoproterenol (Mongrel dogs; i.v., 0.1 mg/kg): 97%
- Heart Rate, peak effect as % of max. isoproterenol (Mongrel dogs; i.v., 0.1 mg/kg): 55%
- Rt. Ventricular Contractile Force, peak effect as % of max. isoproterenol (Mongrel dogs; i.v., 0.1 mg/kg): 32%
- Blood Pressure, peak effect as % of max. isoproterenol (Mongrel dogs; intraduodenal, 0.316 mg/kg): 17%
- Heart Rate, peak effect as % of max. isoproterenol (Mongrel dogs; intraduodenal, 0.316 mg/kg): 11%
- Rt. Ventricular Contractile Force, peak effect as % of max. isoproterenol (Mongrel dogs; intraduodenal, 0.316 mg/kg): 23%
- Blood Pressure, peak effect as % of max. isoproterenol (Mongrel dogs; intraduodenal, 1.0 mg/kg): 54%
- Heart Rate, peak effect as % of max. isoproterenol (Mongrel dogs; intraduodenal, 1.0 mg/kg): 44%
- Rt. Ventricular Contractile Force, peak effect as % of max. isoproterenol (Mongrel dogs; intraduodenal, 1.0 mg/kg): 69%
- Blood Pressure, peak effect as % of max. isoproterenol (Mongrel dogs; intraduodenal, 3.16 mg/kg): 94%
- Heart Rate, peak effect as % of max. isoproterenol (Mongrel dogs; intraduodenal, 3.16 mg/kg): 58%
- Rt. Ventricular Contractile Force, peak effect as % of max. isoproterenol (Mongrel dogs; intraduodenal, 3.16 mg/kg): 55%
